For experiment [1], the target named is MMP-13 (Homo sapiens, UniProt P45452). Put plainly: MMP-13 FRET peptide enzyme assay (single dose 10 μM and IC50). Type of experiment: biochemical. To be noted: measured in duplicate; for activity at 10 µM: remaining enzyme activity at 10 μM inhibitor concentration.
Protocol: (§1) The buffer consisted of 50 mM HEPES at pH 7.5 with 10 mM CaCl2 and 0.01% Brij-35. 0.1 mg/mL BSA (Sigma Aldrich, St. Louis, MO, USA) was added before use. As a control inhibitor GM6001 (ilomastat, Enzo Life Sciences, Farmingdale, NY, USA) was used. For selectivity examinations single dose duplicate assays were performed in the same manner as described above on the MMP-1, -2, -3, -8, -9, -12 and -14 isoforms.
Experiment [2] addresses T1, MMP-7 (Homo sapiens, UniProt P09237).
T1 sequence (P09237 95-267): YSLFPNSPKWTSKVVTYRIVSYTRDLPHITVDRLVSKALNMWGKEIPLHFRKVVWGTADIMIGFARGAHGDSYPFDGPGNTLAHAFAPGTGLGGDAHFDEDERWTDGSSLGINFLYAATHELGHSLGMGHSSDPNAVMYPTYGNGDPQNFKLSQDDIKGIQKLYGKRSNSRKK
The experiment in a line: MMP-7 FRET peptide enzyme assay (single dose 10 μM and IC50). To be noted: for activity at 10 µM: read-out: % Activity MMP-7; for IC50: IC50 MMP-7, measured in duplicate.
Protocol: as §1

One may read the IC50 as the midpoint of a concentration-inhibition curve.

The structures appear in SMILES notation.

On to `CN1C(=O)c2ccc(NC(=O)Cc3ccc(OCCCCC(=O)O)cc3)cc2C1=O` [Compound 14a, 5-(4-{[(2-Methyl-1,3-dioxo-2,3-dihydro-1H-isoindol-5-yl)carbamoyl]methyl}phenoxy)pentanoic acid], for which the activity at 10 µM in experiment [1] is 23.7 ± 3.3%; in experiment [2], 100 ± 4.4%. Moreover, the “inhibition of MMP-7 (in words)” value in experiment [2] (discussion of structure activity relationship) was “total loss of inhibition”.
Take `O=C(O)COc1ccc(CC(=O)Nc2ccc3c(c2)C(=O)N(Cc2ccccc2)C3=O)cc1` [Compound 14b, 2-(4-{[(2-Benzyl-1,3-dioxo-2,3-dihydro-1H-isoindol-5-yl)carbamoyl]methyl}phenoxy)acetic acid]: the results for the activity at 10 µM in experiment [1] and in experiment [2] were 58.7 ± 2.7% and 89.9 ± 10%, respectively.
For `O=C(O)CCOc1ccc(CC(=O)Nc2ccc3c(c2)C(=O)N(Cc2ccccc2)C3=O)cc1` [Compound 14c, 3-(4-{[(2-Benzyl-1,3-dioxo-2,3-dihydro-1H-isoindol-5-yl)carbamoyl]methyl}phenoxy)propanoic acid], in that order: 35.8 ± 5.1% and 93.1 ± 1.7%.
For `O=C(O)CCCOc1ccc(CC(=O)Nc2ccc3c(c2)C(=O)N(Cc2ccccc2)C3=O)cc1` [Compound 14d, 4-(4-{[(2-Benzyl-1,3-dioxo-2,3-dihydro-1H-isoindol-5-yl)carbamoyl]methyl}phenoxy)butanoic acid], in that order: 2.6 ± 1.3% and 91.3 ± 0.4%.
For `O=C(O)CCCCOc1ccc(CC(=O)Nc2ccc3c(c2)C(=O)N(Cc2ccccc2)C3=O)cc1` [Compound 14e, 5-(4-{[(2-Benzyl-1,3-dioxo-2,3-dihydro-1H-isoindol-5-yl)carbamoyl]methyl}phenoxy)pentanoic acid], the activity at 10 µM in experiment [2] is 93.2 ± 3.3%.
For `O=C(O)CCCCCOc1ccc(CC(=O)Nc2ccc3c(c2)C(=O)N(Cc2ccccc2)C3=O)cc1` [Compound 14f, 6-(4-{[(2-Benzyl-1,3-dioxo-2,3-dihydro-1H-isoindol-5-yl)carbamoyl]methyl}phenoxy)hexanoic acid], the figures for the activity at 10 µM in experiment [1] and in experiment [2] were 2.5 ± 0.1% and 59.4 ± 0.2%, respectively.
In experiment [1], `O=C(O)CCCCCCOc1ccc(CC(=O)Nc2ccc3c(c2)C(=O)N(Cc2ccccc2)C3=O)cc1` [Compound 14g, 7-(4-{[(2-Benzyl-1,3-dioxo-2,3-dihydro-1H-isoindol-5-yl)carbamoyl]methyl}phenoxy)heptanoic acid] registered an IC50 of 0.15 ± 0.031 µM and an activity at 10 µM of 1 ± 0.1%. Also, the activity at 10 µM in experiment [2] was determined as 53.8 ± 0.8%.
As for `O=C(O)CCCCCCCOc1ccc(CC(=O)Nc2ccc3c(c2)C(=O)N(Cc2ccccc2)C3=O)cc1` [Compound 14h, 8-(4-{[(2-Benzyl-1,3-dioxo-2,3-dihydro-1H-isoindol-5-yl)carbamoyl]methyl}phenoxy)octanoic acid], the IC50 was determined as 1.67 ± 0.429 µM in experiment [1] and 3.18 ± 0.249 µM in experiment [2]. Moreover, the activity at 10 µM stood at 16 ± 0.14% in experiment [1] and 25.9 ± 0.5% in experiment [2].
`O=C(O)CCCCCCCCCOc1ccc(CC(=O)Nc2ccc3c(c2)C(=O)N(Cc2ccccc2)C3=O)cc1` [Compound 14j, 10-(4-{[(2-Benzyl-1,3-dioxo-2,3-dihydro-1H-isoindol-5-yl)carbamoyl]methyl}phenoxy)decanoic acid]: the IC50 in experiment [1] stood at 7.12 ± 0.94 µM; in experiment [2], 6.2 ± 1.85 µM.
Consider `O=C(O)CCOc1ccc(CC(=O)Nc2ccc3c(c2)C(=O)N(Cc2ccc(F)cc2)C3=O)cc1` [Compound 14k, 3-{4-[({2-[(4-Fluorophenyl)methyl]-1,3-dioxo-2,3-dihydro-1H-isoindol-5-yl}carbamoyl)methyl]-phenoxy}propanoic acid], for which the activity at 10 µM in experiment [1] amounted to 37 ± 0.2%; in experiment [2], 98 ± 7.3%.
For `O=C(O)CCCOc1ccc(CC(=O)Nc2ccc3c(c2)C(=O)N(Cc2ccc(F)cc2)C3=O)cc1` [Compound 14l, 4-{4-[({2-[(4-Fluorophenyl)methyl]-1,3-dioxo-2,3-dihydro-1H-isoindol-5-yl}carbamoyl)methyl]-phenoxy}butanoic acid], inhibition in experiment [1] was half-maximal at 0.361 ± 0.052 µM (IC50). Moreover, the figures for the activity at 10 µM in experiment [1] and in experiment [2] were 3.6 ± 1.1% and 85.1 ± 2.2%, respectively.

These data come from paper PMC6151531, “Development of a Non-Hydroxamate Dual Matrix Metalloproteinase (MMP)-7/-13 Inhibitor” (Molecules : A Journal of Synthetic Chemistry and Natural …, 2017).
